From the METLIN SMRT retention time set (Domingo-Almenara et al. 2019)

assay: gradient 5% acetonitrile 3 min, to 50% in 2 min, to 85% in 15 min, held 3 min, 100 µL/min; settings: column: Zorbax Extend-C18 2.1 x 50 mm; eluents: water / acetonitrile, 0.1% formic acid
Outline: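 Retention time was recorded from adduct peaks, which were picked computationally and each inspected manually. Pure standards ran in mixtures of ~100 molecules on HPLC coupled to a quadrupole time-of-flight mass spectrometer, in positive and negative ionization mode, through a Zorbax Extend-C18 column (2.1 × 50 mm, 1.8 μm) at 100 μL/min. Eluents were water and acetonitrile, each with 0.1% formic acid.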

SMILES	RP-LC retention time
Cc1nc2ccccc2c(=O)n1-c1ccc(NC(=O)c2cnccn2)cc1	682 s
O=C(CSc1nccn1-c1cccc(Cl)c1)Nc1ccccc1C(F)(F)F	591 s
CC(C)n1c(=O)c(NCc2ccccc2Cl)nc2ccncc21	596 s
Cc1noc(C)c1S(=O)(=O)N1[C@H]2CC[C@@H]1c1cnc(-c3ccc(F)cc3)nc1C2	1060 s
CCOc1ccc(NC(=O)Cn2cccc2-c2nnc(C3CC3)o2)cc1	847 s
Cn1ncc2c3ccccc3n(CCCC(=O)NCCc3ccccc3)c2c1=O	845 s
O=C(c1cccs1)N1CCN(c2nnc3ccccn23)CC1	608 s
O=C(N[C@H]1C[C@@H]2C[C@H]1N(C(=O)COc1cccc(Cl)c1)C2)c1cccnc1	656 s
O=C(Nc1ccccc1Cl)N(CCc1ccccc1)Cc1ccccn1	852 s
O=c1c2cnn(-c3ccc(F)cc3)c2ncn1Cc1nc(-c2ccc(Br)cc2)no1	1140 s
O=C(c1ccc(Br)o1)N1CCC2(CC1)OCCS2	771 s
COCCN(Cc1ccc(C(C)C)cc1)Cc1cc(=O)n2cc(Cl)ccc2n1	628 s
CCn1cnc(S(=O)(=O)N2CCC(C(=O)N3CCN(c4ccc(F)cc4)CC3)CC2)c1	762 s
Cc1ccc(S(=O)(=O)N2CCC(CC(=O)NC(C)c3ccccc3)CC2)cc1 (stereo not drawn)	917 s
CCc1ccc(C(C)NS(=O)(=O)c2c(C)c(-c3nnc(C4CCC4)o3)n(C)c2C)cc1 (stereo not drawn)	1060 s
Cc1cc(C)cc(Nc2nc(C)cc(=O)n2CC(=O)Nc2cccc(Br)c2)c1	934 s
Cc1ccc(NC(=O)N2CCCC2c2nc(-c3cccc(F)c3)no2)cc1 (stereo not drawn)	1010 s
O=C(O)c1cccc(Nc2c(-c3ccc(N4CCOCC4)cc3)nc3cnccn23)c1	648 s
O=C(Nc1ccccc1F)C1CC(=O)N(CCc2c[nH]c3ccc(F)cc23)C1 (stereo not drawn)	790 s
O=C(O)c1ccc(N2CCN(c3ccccn3)CC2)c(NS(=O)(=O)c2ccc(F)c(F)c2)c1	649 s
Cc1ccc(C)c(N2CCN(c3ccnc(SCC(=O)Nc4ccc(C(C)C)cc4)n3)CC2)c1	1060 s
CC(C)S(=O)(=O)c1cccc(C(=O)Nc2nc(-c3cc([N+](=O)[O-])cs3)cs2)c1	914 s

SMILES	RP-LC retention time
O=C(CN1CCN(C(=O)Nc2ccc(F)cc2)CC1=O)NC1CCCCC1	701 s
CCc1nnc2ccc(-c3noc(-c4cc(F)ccc4F)n3)cn12	896 s
Cc1oc2c(c1C(=O)NC(C)c1ccccc1)C1=NC(C)(C)CN1C=N2 (stereo not drawn)	653 s
CCC(C)C(NC(=O)c1cc(C)cc(C)c1)C(=O)Nc1nc2ccccc2[nH]1 (stereo not drawn)	799 s
CC(C)C1c2nccn2CCCN1C(=O)c1n[nH]c(=O)c2ccccc12 (stereo not drawn)	569 s
CC1CCN(S(=O)(=O)N2CCC(C(=O)N3CCCC(Cc4nncn4CC4CC4)C3)CC2)CC1 (stereo not drawn)	678 s
O=C(c1ccoc1)N1CCc2cc(-c3csc(C4CC4)n3)ccc21	1060 s
Cc1ccc(Nc2c(-c3ccc(Cl)cc3)nc3ccc(Cl)cn23)cc1	1060 s
O=C1CCCc2cc(S(=O)(=O)N3CCC(C(=O)NCc4ccc(F)cc4)CC3)ccc2N1	724 s
Cn1c(=O)n(C)c2cc(CNc3ccc(Cl)cc3)ccc21	892 s
CCOC1CCOC2(CCN(C(=O)c3ccoc3)CC2)C1 (stereo not drawn)	686 s
CN(CC1(C)CCOCC1)C(=O)c1ccc2cc[nH]c2c1	696 s
CCn1c(=O)c(C)nc2cc(-c3noc(C(C)NC(=O)c4ccco4)n3)ccc21 (stereo not drawn)	866 s
O=C([C@H]1C[C@@H](F)CN1S(=O)(=O)c1ccc(F)c(Cl)c1)N1CCOCC1	731 s
Cc1onc(-c2ccccc2)c1C(=O)NC1C(=O)N2C1SC(C)(C)C2C(=O)O (stereo not drawn)	818 s
O=C(Nc1ccc(-c2ccc(=O)[nH]n2)cc1)c1ccc(-n2cccn2)nn1	643 s
O=S(=O)(c1cccc(F)c1)N1CCc2nc(-c3ccc(Cl)cc3)ncc2C1	1130 s
CN1C(=O)C2(c3ccccc31)C(C(=O)Nc1c(F)c(F)c(F)c(F)c1F)CC1CCCN12 (stereo not drawn)	653 s
Cc1ccc(-c2noc(-c3ccc(=O)n(Cc4ccc(Cl)cc4)c3)n2)cc1	1230 s
Cc1noc(-c2cc(=O)n(CC(=O)Nc3ccc4c(c3)OCCO4)c3ccccc23)n1	803 s
O=C1CCN(C(=O)C2CCN(C(=O)CN3CCCC3=O)CC2)CCCCCCN1	572 s

Other lines, results leading:

RP-LC retention time	SMILES
871 s	COc1ccc(-n2cc(C(=O)NCCc3c[nH]c4ccc(F)cc34)nn2)cc1
877 s	COCCN1C(=O)c2ccccc2C(C(=O)NCc2ccc(F)cc2)C12CCCCC2 (stereo not drawn)
718 s	O=C(NCC1CN(CC2CC2)CC12CCCCC2)Nc1cc(F)ccc1F (stereo not drawn)
781 s	Cc1cccc(NC(=O)C2CCN(S(=O)(=O)c3cn(C(C)C)cn3)CC2)c1
1070 s	COc1ccc(-c2noc(-c3nc(-c4ccccc4OC)no3)n2)cc1OC
755 s	O=C(c1ccccc1Cl)N1CCN(Cc2noc3ccccc23)CC1
656 s	CCOC[C@@H]1CC(F)(F)CN1C1CCN(Cc2ccc3cc[nH]c3c2)CC1
926 s	COc1cccc(-c2noc(COC(=O)C3=CN(C)S(=O)(=O)N=C3C)n2)c1
657 s	CC(C)CCN(CC(=O)N1CCNCC1)C(=O)c1ccc(Br)cc1
605 s	Cc1nnc2n1CCC(NC(=O)CC1=CCCCC1)CC2 (stereo not drawn)
611 s	Cc1cnc(C(=O)NC2C[C@H]3CC[C@@H](C2)N3C(=O)Cc2c(C)noc2C)cn1 (stereo partly drawn)
580 s	Cc1cc(N2CCOCC2)nc(Nc2ccc(NC(=O)C(C)Oc3ccccc3)cc2)n1 (stereo not drawn)
714 s	O=C([C@@H]1C[C@H](F)CN1C(=O)COc1ccc(F)cc1)N1CCCCC1
930 s	COc1ccc(N2CC(c3nc(-c4cccs4)no3)CC2=O)cc1Cl (stereo not drawn)
842 s	COC(=O)c1ccc(N2C=C(C(=O)N3CCCC3)S(=O)(=O)c3ccc(Cl)cc32)cc1
666 s	COc1cc(OC)c(C(=O)CCCN2CCCC2)c(OC)c1
993 s	COc1cc(NC(=O)Cn2cccc2-c2nnc(-c3ccccc3)o2)cc(OC)c1
832 s	Cc1[nH]c(C(=O)N2CCC(CC(=O)NC(C)c3ccccc3)CC2)c(C)c1C(=O)OC(C)C (stereo not drawn)
1020 s	Cc1oc(C(C)C)nc1C(=O)NC1CCCCC1
591 s	COc1ccc(-c2oc3ccc(OC)cc3c2C(=O)NCCN2CCOCC2)cc1
718 s	O=C(c1csc(S(=O)(=O)N2CCC(C(=O)N3CCOCC3)CC2)c1)N1CCCCCC1
674 s	CCOC(=O)C1=C(CN2CCCC(C(=O)OCC)C2)NC(=O)NC1c1ccc(C)cc1 (stereo not drawn)
897 s	CCOC(=O)c1c(S(=O)(=O)N2CCC(C(=O)Nc3ccc(F)cc3)CC2)c(C)n(CC)c1C

RP-LC retention time	SMILES
652 s	CC(C)C(=O)N1CCc2cc(CNS(=O)(=O)Cc3ccccc3)ccc21
595 s	CCN1CCN(CCCNC(=O)c2cc(-c3ccc(C)c(C)c3)[nH]c2C)CC1
559 s	Cc1cc(C)c2c(N3CCSCC3)nc(C(=O)NCCN3CCCCC3)nc2n1
825 s	COC(=O)CN1N=C(C(=O)N2CCC(C)CC2)S(=O)(=O)c2ccccc21
662 s	O=C(Cn1c(CN2CCCCCC2)nc2ccccc21)N1CCCCC1
703 s	Cc1ccc2c(=O)c(C(=O)N3CCCC3)cn(CC(=O)Nc3cc(F)ccc3F)c2n1
1060 s	COc1ccc(N2CCN(c3cc(SCC(=O)Nc4ccc(F)c(Cl)c4)ncn3)CC2)cc1
654 s	COc1cccc(NC(=O)Nc2cc(-c3cn4cccnc4n3)ccc2OC)c1
584 s	CCCN(C)CC1(O)CCC2(CCN(C(=O)C3CCCC3)CC2)CC1
748 s	COc1ccc(-c2nnc(N3CCC(C(=O)Nc4ccc(OC)c(OC)c4)CC3)o2)cc1
665 s	O=C(NCc1ccccc1Cl)c1cn2c(n1)COCC2
777 s	COc1ccc(-c2nc(N3CCCCC3)c3ccccc3n2)cc1
780 s	COc1ccc(-c2nc3cc(C)ccn3c2NC(=O)COc2ccc(Cl)cc2Cl)cc1
645 s	Cn1c(=O)c(N2CCC(C(=O)NCCCN3CCCC3=O)CC2)nc2ccccc21
696 s	COc1ccc(OC)c(NC(=O)Nc2c(-c3cccc(C)c3)nc3ccccn23)c1
922 s	CCCN(CC(=O)N1CCc2sccc2C1COc1ccccc1OC)C(=O)C1CC1 (stereo not drawn)
798 s	CCc1cccc(NC(=O)Cn2nc3cc(C)nc(N4CCCC4)n3c2=O)c1
1300 s	CCOc1nc2ccccc2nc1N1CCCC(C(=O)Nc2ccc(Cl)cc2C)C1 (stereo not drawn)
742 s	Cn1ncc2c(N3CCCC3)nc(C(=O)NCc3cccs3)nc21
751 s	CCn1c(=O)sc2cc(S(=O)(=O)N3CCC(C(=O)Nc4ccccn4)CC3)ccc21
763 s	COc1cccc(S(=O)(=O)N2CCC(N3CCN(Cc4ccccc4)C(=O)C3=O)CC2)c1
1090 s	CCOCC1CCC2(CCN(S(=O)(=O)c3ccc(C)c(F)c3)CC2)O1 (stereo not drawn)
